Reference: PubChem BioAssay AID1963828 (Molecular Pharmacology Branch, DTP, NCI, 2024)
Where “and” joins values, the source holds several entries; their conditions need not be identical. Identical values can stand only once.

Test system: 991263-137-R1-J2-PDC complex spheroid viability
Assay: Anticancer human tumor 991263-137-R1-J2-PDC patient-derived colon adenocarcinoma cell line growth inhibition [POLQ]
Conditions: for viability, T/C: stronger effect = lower value
Protocol: Multicellular complex tumor spheroid response to Polymerase (POL) inhibitors (novobiocin, ART-558, RP6685) in combination with a variety of drugs and investigational agents in selected tumor cell lines
The POL inhibitors (novobiocin, ART-558, and RP6685) were evaluated both individually and in combination with standard of care and investigational anticancer small molecules within a complex spheroid model of solid tumors. . Complex spheroids include a stromal component modeled by human endothelial cells (HUVEC) and fibroblasts modeled by human mesenchymal stem cells (MSCs). The concentration ranges selected for each drug and investigational agent were based upon clinically achievable concentrations if the clinical Cmax of the agent was known.
Compounds. The drugs and investigational agents: novobiocin (NSC847541), ART-558 (NSC835418), RP-6685 (NSC848927), peposertib (NSC802822), ceralasertib (NSC780249), elimusertib (NSC800525), camonsertib (NSC841442), AZD-1390 (NSC803789), olaparib (NSC753686), talazoparib (NSC767125), rucaparib (NSC756644), sotorasib (NSC818433), MRTX-1133 (NSC836407), SN-38 (NSC673596), topotecan (NSC609699), epotoside (NSC141540), doxorubicin (NSC123127), gemcitabine (NSC613327), 5-fluorouracil (NSC19893), paclitaxel (NSC125973), vemurafenib (NSC761431), MSA-2 (NSC828583), SN-011 (NSC837082), adavosertib (NSC754352), prexasertib (NSC758257), carboplatin (NSC241240) and oxaliplatin (NSC266046), were obtained from the National Cancer Institute (NCI) Developmental Therapeutics Program Chemical Repository (21). The FDA-approved anticancer drug set is available from the Developmental Therapeutics Program at https://dtp.cancer.gov/organization/dscb/obtaining/. […] The stock solutions were prepared in dimethyl sulfoxide (DMSO, Sigma-Aldrich, St. Louis, MO, cat. D2650), except for the platinum compounds which were prepared in saline (Quality Biological, Gaithersburg, MD, cat. 114-055-101), at 800-fold the tested concentration and stored at -70 degrees C prior to their use. All drugs and investigational agents were tested over a range starting from a high concentration at or near the clinical Cmax and decreasing in half-log increments. If the clinical Cmax for an agent had not been determined, the highest concentration tested was 10 microM, except for SN-38, which was tested at a high concentration of 1 microM.
Cell Culture. All cells were maintained in an incubator at 37 degrees C and 5% CO2 with 95% humidity. The PDC lines were cultured according to standard operating procedures established by the NCI PDMR (https://pdmr.cancer.gov). Table 3 of the manuscript, lists the cell lines along with the number of the three cell types plated to form the mct-spheroids and media for tumor cell growth. After thawing, all PDC lines, except 997537-175-T-J1-PDC and 415267-285-R-J2-PDC, were cultured in Matrigel-coated flasks prepared with a working solution of 1X Ham's F-12 nutrient mix, without supplementation (Thermo Fisher Scientific, cat. 11765054), 100 U/mL penicillin-streptomycin (Thermo Fisher Scientific, cat. 15140122), and 2.5% Matrigel (Corning Inc., Corning, NY, cat. 354248) for the first three passages. The two PDC lines 997537-175-T-J1-PDC and 415267-285-R-J2-PDC were cultured on uncoated flasks. The 857933-349-R-J2-PDC line was cultured in 6C/Colon 1B media containing advanced DMEM/F-12 (Thermo Fisher Scientific, cat. 12634028), 10 mM HEPES (Thermo Fisher Scientific, cat. 15630080), 1X GlutaMAX supplement (Thermo Fisher Scientific, cat. 35050061), 0.1 mg/mL primocin (InvivoGen, San Diego, CA, cat. ant-pm-2), 10% defined fetal bovine serum, heat inactivated (HyClone Laboratories Inc., Logan, UT, cat. SH30070.03HI), 50% L-WRN conditioned media (ATCC, cat. CRL-3276), 1.25 mM N-Acetyl-L-cysteine (Sigma-Aldrich, cat. A9165), 10 mM nicotinamide (Sigma-Aldrich, cat. N0636), 1X B-27 supplement (Thermo Fisher Scientific, cat. 17504044), 1X N-2 supplement (Thermo Fisher Scientific, cat. […]

[1] = compound alone, run of 01/08/2024
[2] = compound alone, run of 01/19/2024
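Also: spheroids exposed to compounds for 7 days before readout.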
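For viability, T/C in this document: 100% = DMSO vehicle control viability.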

CNCc1ccc(-c2[nH]c3cc(F)cc4c3c2CCNC4=O)cc1
viability, T/C (compound 0.0316 µM): 98% and 102% and 119% | viability, T/C (compound 0.1 µM): 109% and 91.5% and 97.6% | viability, T/C (compound 0.316 µM): 97% and 102% and 112% | viability, T/C (compound 1 µM): 110% and 101% and 96% | viability, T/C (compound 10 µM): 111% and 110% and 104% | IC50 (curve of compound): > 10 µM

COC1C(OC(N)=O)C(O)C(Oc2ccc3c(O)c(NC(=O)c4ccc(O)c(CC=C(C)C)c4)c(=O)oc3c2C)OC1(C)C (stereo not given)
viability, T/C (compound 0.0316 µM): 102% [middle of 12 runs] | viability, T/C (compound 0.316 µM): 103% [middle of 12 runs] | IC50 [1]: > 10 µM

COc1cc(C2c3cc4c(cc3C(OC3OC5COC(C)OC5C(O)C3O)C3COC(=O)C23)OCO4)cc(OC)c1O (stereo not given)
viability, T/C (compound 0.0316 µM): 105% and 96.4% and 99.6% | viability, T/C (compound 0.1 µM): 86.2% and 94.5% and 92.4% | viability, T/C (compound 1 µM): 97.8% and 95.9% and 92.5% | viability, T/C (compound 3.16 µM): 77.9% and 88.6% and 71.9% | viability, T/C (compound 10 µM): 69.9% and 77% and 77.1% | IC50 (curve of compound): > 10 µM

COc1cc2cc(C(=O)CCC(=O)O)sc2cc1OC
viability, T/C (compound 0.0316 µM): 104% and 107% and 91.3% | viability, T/C (compound 0.1 µM): 85% and 96.5% and 104% | viability, T/C (compound 0.316 µM): 117% and 104% and 114% | viability, T/C (compound 10 µM): 74.1% and 83.3% and 78.4% | IC50 (curve of compound): > 10 µM

COc1ccc([C@@H](O)c2cc(-c3ncnc4cc(N5CCOCC5)ccc34)c(F)cc2Cl)nn1
viability, T/C (compound 0.0316 µM): 105% and 102% and 82.6% | viability, T/C (compound 0.1 µM): 84.6% and 103% and 79.1% | viability, T/C (compound 0.316 µM): 98.5% and 95.2% and 91.9% | viability, T/C (compound 1 µM): 87% and 97.5% and 103% | viability, T/C (compound 3.16 µM): 68% and 66.7% and 59.3% | viability, T/C (compound 10 µM): 28.5% and 31.4% and 28.6% | IC50 (curve of compound): 5.36 µM and 5.45 µM and 4.48 µM

COc1cccc(OCCCN)c1-c1cc(Nc2cnc(C#N)cn2)n[nH]1
viability, T/C (compound 0.00316 µM): 89.6% and 99.7% and 88.6% | viability, T/C (compound 0.01 µM): 98.1% and 107% and 85.7% | viability, T/C (compound 0.0316 µM): 101% and 94.9% and 94.6% | viability, T/C (compound 0.316 µM): 43.2% and 53.1% and 61.2% | viability, T/C (compound 1 µM): 40.1% and 42.8% and 46.3% | IC50 (curve of compound): 0.0909 µM and 0.464 µM and 0.75 µM

COc1cccc2c1C(=O)c1c(O)c3c(c(O)c1C2=O)CC(O)(C(=O)CO)CC3OC1CC(N)C(O)C(C)O1 (stereo not given)
viability, T/C (compound 0.0316 µM): 103% and 95.2% and 99.9% | viability, T/C (compound 0.1 µM): 106% and 91% and 88.5% | viability, T/C (compound 0.316 µM): 77% and 85.2% (2×) | viability, T/C (compound 1 µM): 51% and 54.2% and 48.5% | viability, T/C (compound 3.16 µM): 29.6% and 40.6% and 40.8% | viability, T/C (compound 10 µM): 41.7% and 36.5% and 38.3% | IC50 (curve of compound): 0.903 µM and 1.42 µM and 0.972 µM

Cc1cccc(N(C)C(=O)C2C(O)CCN2c2nc(C)cc(C(F)(F)F)c2C#N)c1 (stereo not given)
viability, T/C (compound 0.0316 µM): 101% [middle of 13 runs] | viability, T/C (compound 0.1 µM): 99.2% [middle of 13 runs] | viability, T/C (compound 3.16 µM): 101% [middle of 13 runs] | viability, T/C (compound 10 µM): 100% [middle of 13 runs] | IC50 [1]: > 10 µM | IC50 [2]: > 10 µM

Cn1ncnc1[C@H]1c2n[nH]c(=O)c3cc(F)cc(c23)N[C@@H]1c1ccc(F)cc1
viability, T/C (compound 0.000316 µM): 102% and 97.3% and 87.3% | viability, T/C (compound 0.001 µM): 93.6% and 88.1% and 88.5% | viability, T/C (compound 0.00316 µM): 102% and 104% and 109% | viability, T/C (compound 0.01 µM): 109% and 105% and 119% | viability, T/C (compound 0.0316 µM): 89.6% and 101% and 84.5% | viability, T/C (compound 0.1 µM): 106% and 112% and 105% | IC50 (curve of compound): > 0.1 µM

Nc1ccc(C#CCN(C(=O)Cc2ncc(C(F)(F)F)cc2C(F)(F)F)c2ccc(F)cc2)nn1
viability, T/C (compound 0.0316 µM): 100% [middle of 13 runs] | viability, T/C (compound 0.1 µM): 101% [middle of 13 runs] | viability, T/C (compound 0.316 µM): 99.3% [middle of 13 runs] | viability, T/C (compound 1 µM): 102% [middle of 13 runs] | viability, T/C (compound 3.16 µM): 103% [middle of 13 runs] | viability, T/C (compound 10 µM): 101% [middle of 13 runs] | IC50 [2]: > 10 µM

Nc1ccn(C2OC(CO)C(O)C2(F)F)c(=O)n1 (stereo not given)
viability, T/C (compound 0.0316 µM): 90.8% and 85.4% and 75.5% | viability, T/C (compound 0.1 µM): 53.7% and 74.1% and 58.9% | viability, T/C (compound 0.316 µM): 69% and 61.1% and 58.6% | viability, T/C (compound 1 µM): 58.6% and 60.4% and 47.9% | viability, T/C (compound 3.16 µM): 37.6% and 56.2% and 37.2% | viability, T/C (compound 10 µM): 40.8% and 47% and 37.3%

O=C(Nc1ccc(O)c(NS(=O)(=O)c2ccc(F)cc2)c1)c1ccc(-c2ccccc2)cc1
viability, T/C (compound 0.0316 µM): 101% (2×) and 109% | viability, T/C (compound 0.1 µM): 98.5% and 91.8% and 94.6% | viability, T/C (compound 0.316 µM): 113% and 109% and 100% | viability, T/C (compound 1 µM): 97.6% and 98.6% and 105% | viability, T/C (compound 3.16 µM): 96.9% and 88.3% and 105% | viability, T/C (compound 10 µM): 101% and 97.1% and 79.9% | IC50 (curve of compound): > 10 µM

O=C(c1cc(Cc2n[nH]c(=O)c3ccccc23)ccc1F)N1CCN(C(=O)C2CC2)CC1
viability, T/C (compound 0.0316 µM): 106% and 90.8% and 97% | viability, T/C (compound 0.1 µM): 97.2% and 97.7% and 99.1% | viability, T/C (compound 0.316 µM): 84.8% and 95.7% and 101% | viability, T/C (compound 1 µM): 108% and 85.4% and 103% | viability, T/C (compound 3.16 µM): 105% and 92.7% and 98.1% | IC50 (curve of compound): > 10 µM

O=c1[nH]cc(F)c(=O)[nH]1
viability, T/C (compound 0.0316 µM): 106% and 114% and 96.5% | viability, T/C (compound 0.1 µM): 90.3% and 99.3% and 92.5% | viability, T/C (compound 0.316 µM): 76.8% and 93.5% and 94.8% | viability, T/C (compound 1 µM): 94% and 95.8% and 91% | viability, T/C (compound 10 µM): 91.7% and 85.1% and 80.9% | IC50 (curve of compound): > 10 µM
